# Data reported in US20140303092A1 (CHIMERIX, INC., priority 2011, published 2014).
# Values joined by “and” are separate entries in the source; they are usually repeats but may differ in a detail not shown here. Identical values can stand only once.
# Test system: CMV
# Experiment: Study HDP-CDV-201: prevention or control of CMV infection in R+ HSCT recipients (efficacy)
# Format: in vivo, human (adult allogeneic HSCT recipients)
# Experimental: The clinical study of the current invention (HDP-CDV-201) was a 9-11 week randomized, placebo-controlled, double-blind, dose-escalation study (40 mg weekly [QW], 100 mg QW, 200 mg QW, 200 mg twice-weekly [BIW], and 100 mg BIW) of HDP-CDV for the prevention of CMV infection post-HCT. Treatment was initiated at the time of engraftment and continued until Week 13 post-HCT. HDP-CDV, at various doses, was active and well tolerated in the prevention CMV infection or disease.
# Clinical Studies of HDP-CDV were performed and described in detail in the following Examples. For example, HDP-CDV-201 is a placebo-controlled, dose-escalating trial in HSCT CMV (R+) recipients, evaluating the ability of HDP-CDV to prevent or control CMV infection was carried out. Five cohorts were established in which participants or subjects received either placebo or the HDP-CDV orally, in doses ranging from 40 mg weekly (QW) to 200 mg twice weekly (BIW). Subjects who were post-HSCT were enrolled at the time of engraftment and randomized to HDP-CDV or placebo (3 to 1 ratio) and received blinded therapy until approximately 100 day post-transplantation. HDP-CDV doses were 40 mg QW, 100 mg QW, 200 mg QW, 200 mg BIW and 100 mg BIW. Escalation to the next dose was decided by the data monitoring committee after review of the safety data from the previous Cohort. Subjects who developed CMV disease or CMV infection requiring pre-emptive therapy with local standard of care were discontinued from blinded therapy and followed for 4 weeks. Subjects who completed treatment with blinded therapy were followed for 8 weeks post-therapy.
# The primary endpoint was defined as the incidence of CMV disease at any time during treatment or CMV DNAemia≧200 copies/mL at the end of treatment. All subjects who received at least one dose of drug/placebo and had at least one efficacy evaluation post baseline were included in the primary analysis, regardless of their CMV DNAemia status (negative or positive) at baseline (mITT population). Results for the pooled HDP-CDV Cohorts and for each Cohort separately were analyzed versus that for pooled placebo.
# The primary efficacy measure for this study was treatment failure, defined as the occurrence of CMV infection, defined as CMV DNAemia>200 copies/mL at the End of Treatment or diagnosis of CMV disease at any time during the treatment period. For the analysis, the following definitions apply:
# For subjects who completed the treatment phase of the study, the End of Treatment was defined as the latest assessment from date of the last dose of study drug and up to 7 days for QW dosing, or the date of the last dose of study drug and up to 4 days for BIW dosing. For subjects who discontinued during the treatment phase of the study, the End of Treatment was defined as the date of the last dose of study drug.
# The time to event was defined as the period between FDD and date of first occurrence of the event of interest (inclusive). The events included onset of CMV DNAemia, onset of CMV disease, and discontinuation because of excluded anti-CMV medications. Time to event/onset was derived as (the event/onset date—FDD)+1.
# As detailed in the Statistical Analysis Plan, a modified CMV stratum was defined prior to conducting the statistical analysis based upon polymerase chain reaction (PCR) results from the central laboratory. If any positive CMV DNA value in plasma was collected before the first dose of study drug (including Screening, Pre-dose, (combined Screening/Pre-dose), CMV for stratification, and FDD), then the subject was placed into the modified CMV positive (≧100 copies/mL) stratum, otherwise the subject was in the modified CMV negative stratum. […]
# [1] = 200 mg QW, modified CMV negative stratum
# [2] = 200 mg QW, whole study period, CMV DNA negative at baseline
# [3] = All HDP-CDV, CMV modified strata: negative
# [4] = All HDP-CDV, CMV modified strata: positive
smiles,measurement,setting,value
CCCCCCCCCCCCCCCCOCCCOP(=O)(O)COC(CO)Cn1ccc(N)nc1=O (stereo not drawn) [HDP-CDV],Subjects Receiving Antiviral Therapy and/or had CMV disease,"200 mg QW, mITT",7 (17.9%) subjects (%)
same,Subjects without a CMV event,"200 mg QW, mITT",32 (82.1%) subjects (%)
same,"Time to Antiviral Therapy, Median","200 mg QW, mITT",40.0 days
same,Rate of CMV Disease or End of Treatment CMV Infection (≧200 copies/ml),"200 mg QW, mITT, missing=infection",31% and 30.8%
same,Rate of CMV DNAemia ≧1000 copies/mL during the treatment period,"200 mg QW, mITT, post hoc",18% and 17.9%
same,"Time to Antiviral Therapy, Mean","200 mg QW, mITT, censored values not included",38.1 days
same,"% CMV Event Rate: Incidence of CMV DNAemia >100 copies/mL During Treatment (Fisher analysis, ref 14.3.3.2.1)",[1],7 (24.1%) subjects (%)
same,"% CMV Event Rate: Incidence of CMV DNAemia ≧1,000 copies/mL at any time during treatment",[1],2 (6.9%) subjects (%)
same,"Combined CMV event rate (CMV disease, viremia requiring treatment, viremia ≧1000 copies/mL)",[1],13.8%
same,"Subjects Who Had CMV-related Event (CMV disease, CMV DNAemia ≧1,000 c/mL or initiation of anti-CMV treatment)",[1],4 (13.8%) subjects (%)
same,Subjects without a CMV-related event,[1],25 (86.2%) subjects (%)
same,Developed CMV DNAemia (≧100 copies/mL) during the treatment period,"200 mg QW, plasma CMV DNA negative at baseline, mITT",7 (23.3%) N(%)
same,"Time to CMV DNAemia (≧100 copies/mL), Median","200 mg QW, treatment period, CMV DNA negative at baseline",15.0 days
same,"Time to CMV DNAemia (≧100 copies/mL), Mean","200 mg QW, treatment period, CMV DNA negative at baseline, censored values not included",22.6 days
same,Number of Subjects who had CMV DNAemia (≧100 copies/mL) by the end of study,[2],11
same,"Time to CMV DNAemia (≧100 copies/mL), Mean",[2],36.3 days
same,"Time to CMV DNAemia (≧100 copies/mL), Median",[2],36.0 days
same,subjects with emergence of viremia between end of treatment and end of treatment-free follow-up,8 weeks follow-up,less than 10%
same,"% CMV Event Rate, primary: CMV DNAemia >200 copies/mL at end of treatment OR CMV disease during treatment","All HDP-CDV (N = 133), CMV modified strata: negative",21 (15.8%) subjects (%)
same,"% CMV Event Rate, primary: CMV DNAemia >200 copies/mL at end of treatment OR CMV disease during treatment","All HDP-CDV (N = 162), aGVHD strata: negative",41 (25.3%) subjects (%)
same,"% CMV Event Rate, primary: CMV DNAemia >200 copies/mL at end of treatment OR CMV disease during treatment","All HDP-CDV (N = 171), mITT",43 (25.1%) subjects (%)
same,Difference (HDP-CDV minus placebo) in infection rate,[3],−14.0%
same,"Difference (HDP-CDV minus placebo) in rate of CMV DNAemia ≧1,000 copies/ml",[3],−25.9%
same,"Rate of CMV DNAemia ≧1,000 copies/ml during the treatment period",[3],6.0%
same,Rate of CMV Disease or End of Treatment CMV Infection,[3],15.8%
same,"Difference (HDP-CDV minus placebo) in rate of CMV DNAemia ≧1,000 copies/mL",[4],−28.1%
same,"Rate of CMV DNAemia ≧1,000 copies/mL during the treatment period",[4],55.3%
same,Rate of CMV Disease or End of Treatment CMV Infection,"All HDP-CDV, aGVHD randomization strata: negative",25.3%
same,Difference (HDP-CDV minus placebo) in infection rate,"All HDP-CDV, aGVHD strata: negative",−6.8%
same,Difference (HDP-CDV minus placebo) in rate of CMV DNAemia ≧1000 copies/mL,"All HDP-CDV, mITT",−25.4%
same,Difference (HDP-CDV minus placebo) in rate of CMV disease or end of treatment CMV infection,"All HDP-CDV, mITT",−12.1%
same,Rate of CMV DNAemia ≧1000 copies/mL during the treatment period,"All HDP-CDV, mITT, post hoc",17.0%
same,"% CMV Event Rate: Incidence of CMV DNAemia ≧1,000 copies/mL at any time during treatment","All HDP-CDV, modified CMV negative stratum",8 (6.0%) subjects (%)
same,CMV disease/infection rate (primary endpoint),"All cohorts combined, aGVHD positive strata (2 of 9)",22.2%
same,CMV DNAemia rate over whole study period,"Cohorts 100 mg QW, 200 mg QW and 100 mg BIW",~35%
same,"% CMV Event Rate, primary: CMV DNAemia >200 copies/mL at end of treatment OR CMV disease during treatment","Combined 100 mg QW, 200 mg BIW, 100 mg BIW (N = 86), CMV modified strata: negative",8 (9.3%) subjects (%)
same,Rate of CMV DNAemia ≧1000 copies/mL during the treatment period,"Exploratory analysis, cohorts that met endpoint (200 mg QW, 200 mg BIW, 100 mg BIW combined), mITT",11% and 10.9%
same,Difference (HDP-CDV minus placebo) in rate of CMV DNAemia ≧1000 copies/mL,"Exploratory analysis, cohorts that met endpoint, mITT",−23.2%
same,"Incidence of composite endpoint (initiation of anti-CMV therapy or CMV disease or CMV DNAemia >1,000 copies/mL)",Higher doses (≧200 mg QW),less than 15%
same,Incidence of CMV disease or initiation of anti-CMV preemptive therapy,"Pooled HDP-CDV, mITT",22% and 21.6%
same,overall rates of CMV DNAemia detectable at any time during treatment,across doses of 100 mg QW and higher,17.4 to 23.8%
same,subjects who developed CMV disease,doses of 100 mg QW or higher (4/146),2.7%
same,subjects who developed CMV disease,doses of 200 mg per week or higher (1/119),0.8%
same,CMV disease/infection rate (primary endpoint),"doses ≧100 mg QW combined, aGVHD positive strata (1 out of 7)",14.3%
same,"failure rate, exploratory endpoint","pooled 100 mg QW, 200 mg BIW, 100 mg BIW, CMV negative stratum (8 of 86)",9%
